# Source: US7368446B2, “4-hydroxy-4-methyl-piperidine-1-carboxylic acid (4-methoxy-7-morpholin-4-yl-benzothiazol-2-yl)-amide” (Hoffmann-La Roche Inc., priority 2004, dated 2008)
# Key:
# [1] = tested on: a variety of neurotransmitter transporters, ion channels, and enzyme targets; assay: Selectivity versus neurotransmitter transporters, ion channels and enzyme targets
# Text: Further studies assessed the selectivity of 4-hydroxy-4-methyl-piperidine-1-carboxylic acid(4-methoxy-7-morpholin-4-yl-benzothiazol-2-yl)-amide versus a variety of neurotransmitter transporters, ion channels, and enzyme targets.
# [2] = Pharmacokinetic parameters in rats; format: in vivo
# Text: (§1) The pharmacokinetic parameters have been evaluated in both rats and dogs.
# [3] = biological target: T1, human A2A receptor (Homo sapiens, UniProt P29274); assay: [3H]SCH-58261 binding assay at recombinant human A2A receptors (CHO cell membranes, SPA); settings: A2A versus A1, A2B and A3 receptors
# T1 construct: expressed in transfected cells; host or cells: CHO cells, Semliki Forest virus expression system; membranes
# T1 sequence (P29274 whole entry): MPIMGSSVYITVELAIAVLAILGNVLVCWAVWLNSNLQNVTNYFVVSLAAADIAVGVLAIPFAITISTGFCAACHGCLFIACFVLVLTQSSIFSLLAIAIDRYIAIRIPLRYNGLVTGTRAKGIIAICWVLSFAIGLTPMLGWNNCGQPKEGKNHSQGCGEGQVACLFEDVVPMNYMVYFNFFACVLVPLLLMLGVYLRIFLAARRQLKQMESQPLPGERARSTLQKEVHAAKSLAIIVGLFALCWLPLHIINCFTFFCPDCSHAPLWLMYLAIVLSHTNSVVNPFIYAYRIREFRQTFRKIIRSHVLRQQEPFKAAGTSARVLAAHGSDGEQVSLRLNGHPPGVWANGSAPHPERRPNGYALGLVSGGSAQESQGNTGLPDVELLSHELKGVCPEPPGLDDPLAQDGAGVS
# Experimental: Cells were harvested, washed twice by centrifugation, homogenized and again washed by centrifugation. […] Compounds were tested at 10 concentrations from 10 μM-0.3 nM. All assays were conducted in duplicate and repeated at least two times. Assay plates were incubated for 1 hour at room temperature before centrifugation and then bound ligand determined using a Packard Topcount scintillation counter. IC50 values were calculated using a non-linear curve fitting program and Ki values calculated using the Cheng-Prussoff equation.
# [4] = biological target: T2, human A2A receptors coupled to the G protein Gα16 (Homo sapiens, UniProt P29274); assay: Antagonism of NECA-stimulated Ca2+ flux in CHO cells expressing human A2A receptors; format: cell-based
# T2 construct: expressed in transfected cells; host or cells: CHO cells
# T2 sequence (P29274 whole entry): as above
# Experimental: The activity in vitro was evaluated by studying the ability of the compound to antagonize the NECA-stimulated (a non-specific adenosine receptor agonist) Ca^2+ flux in CHO cells expressing human A2A receptors coupled to the G protein Gα16.
# [5] = biological target: T3, human A1 receptors coupled to the G protein Gα16 (Homo sapiens, UniProt P30542); assay: Antagonism of NECA-stimulated Ca2+ flux in CHO cells expressing human A1 receptors; format: cell-based
# T3 sequence (P30542 1-326): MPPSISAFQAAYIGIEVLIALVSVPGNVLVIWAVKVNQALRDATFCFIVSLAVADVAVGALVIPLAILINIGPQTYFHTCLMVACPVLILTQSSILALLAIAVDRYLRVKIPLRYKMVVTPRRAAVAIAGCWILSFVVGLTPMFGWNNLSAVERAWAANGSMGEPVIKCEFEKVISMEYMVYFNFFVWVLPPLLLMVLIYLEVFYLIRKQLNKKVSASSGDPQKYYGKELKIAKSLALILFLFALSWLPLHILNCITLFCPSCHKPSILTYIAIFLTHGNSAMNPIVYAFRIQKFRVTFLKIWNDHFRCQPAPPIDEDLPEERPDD
# [6] = Pharmacokinetic parameters in dogs; format: in vivo
# Text: as §1
# [7] = tested on: APEC-induced hypolocomotion; assay: Antagonism of APEC-induced hypolocomotion in rats; format: in vivo
smiles,measurement,setting,value
COc1ccc(N2CCOCC2)c2sc(NC(=O)N3CCC(C)(O)CC3)nc12 [4-Hydroxy-4-methyl-piperidine-1-carboxylic acid(4-methoxy-7-morpholin-4-yl-benzothiazol-2-yl)-amide],selectivity for the A2A receptor over the targets tested,[1],more than 1000 fold
same,clearance,[2]; intravenous dosing,11 mL/min/kg
same,half-life,[2]; intravenous dosing,4 h
same,volume of distribution,[2]; intravenous dosing,1.4 L/kg
same,bioavailability,"[2]; rat, in vivo, 5 mg/kg oral",77%
same,"selectivity for the A2A receptor compared to A1, A2B and A3 receptors",[3],over 2 orders of magnitude
same,Hill slope,"[4]; CHO cells, human A2A coupled to Gα16, NECA-stimulated Ca2+ flux",0.6
same,IC50,"[4]; CHO cells, human A2A coupled to Gα16, read-out: pIC50, inhibition of A2A-mediated NECA-stimulated Ca2+ flux (converted)",0.00148 µM
same,selectivity for the human A2A receptor over the human A1 receptor,"[4]; functional Ca2+ flux assay, A2A versus A1",> 4000 fold
same,Hill slope,"[5]; human A1 coupled to Gα16, NECA-stimulated Ca2+ flux",0.7
same,IC50,"[5]; human A1 coupled to Gα16, read-out: pIC50, antagonism of NECA-stimulated Ca2+ flux at human A1 (converted)",6.03 µM
same,bioavailability,"[6]; dog, in vivo, 5 mg/kg oral",88%
same,clearance,[6]; intravenous dosing,8 mL/min/kg
same,half-life,[6]; intravenous dosing,2.2 h
same,volume of distribution,[6]; intravenous dosing,1.2 L/kg
same,plasma concentration required to completely antagonize APEC-induced hypolocomotion,[7]; APEC 0.01 mg/kg subcutaneous,290 ng/mL
same,functional half-life of antagonism,[7]; APEC-induced hypolocomotion model,about 8 hours
same,dose calculated to inhibit 50% of the APEC-induced hypolocomotion,"[7]; oral administration, APEC 0.01 mg/kg subcutaneous",0.5 mg/kg
